What is called melting point is the temperature, or range, at which the solid turns liquid.

SMILES strings stand for the structures.

`N#Cc1nn(-c2c(F)c(F)c(C(F)(F)F)c(F)c2Cl)c(N)c1C#N` [Compound 157, 5-Amino-1-(2-chloro-3,5,6-trifluoro-4-trifluoromethylphenyl)-3,4-dicyanopyrazole] displayed a melting point of 242 to 243 °C.

In turn, `CN(C)c1c([S+]([O-])C(F)(F)F)c(C#N)nn1-c1c(Cl)cc(C(F)(F)F)cc1Cl` (stereo not shown) had a melting point of 154 to 161 °C.

Compound `CCOC(C)=Nc1c(C#N)c(C)nn1-c1c(Cl)cc(C(F)(F)F)cc1Cl` [Compound 168, 4-Cyano-1-(2,6-dichloro-4-trifluoromethylphenyl)-5-(1-ethoxyethylideneamino)-3-methylpyrazole] displayed a melting point of 50 to 53 °C.

For the compound `N#Cc1nn(-c2c(Cl)cc(C(F)(F)F)cc2Cl)c(NC(=O)C(Cl)Cl)c1C#N`, the melting point was in the range of 186 to 187 °C.

In turn, `N#CSc1c(C(F)(F)F)nn(-c2c(Cl)cc(C(F)(F)F)cc2Cl)c1N` [Compound 230, 5-Amino-1-(2,6-dichloro-4-trifluoromethylphenyl)-4-thiocyanato-3-trifluoromethylpyrazole] gave a melting point of 49 to 50 °C.

The compound `Cc1nn(-c2c(Cl)cc(OC(F)(F)F)cc2Cl)c(N)c1S(C)(=O)=O` [Compound 163, 5-Amino-1-(2,6-dichloro-4-trifluoromethoxyphenyl)-4-methanesulphonyl-3-methylpyrazole] came in with a melting point of 180 to 181 °C.

Consider `N#Cc1c(C(F)(F)F)nn(-c2c(Cl)cc(C(F)(F)F)cc2Cl)c1SC(F)(F)F` [Compound 208, 4-Cyano-1-(2,6-dichloro-4-trifluoromethylphenyl)-3-trifluoromethyl-5-trifluoromethylthiopyrazole], for which the melting point was 120 to 122 °C.

With `Cc1c(C(F)(F)F)nn(-c2c(Cl)cc(C(F)(F)F)cc2Cl)c1N` [Compound 236, 5-Amino-1-(2,6-dichloro-4-trifluoromethylphenyl)-4-methyl-3-trifluoromethylpyrazole], the melting point was 97 to 100 °C.

Consider `N#Cc1c(C(F)(F)F)nn(-c2c(Cl)cc(S(=O)(=O)C(F)(F)F)cc2Cl)c1[N+](=O)[O-]` [Compound 234, 4-Cyano-1-(2,6-dichloro-4-trifluoromethanesulphonylphenyl)-5-nitro-3-trifluoromethylpyrazole], for which the melting point lay within 168 to 169 °C.

`N#Cc1nn(-c2c(Cl)c(F)c(C(F)(F)F)c(F)c2Cl)c(N)c1C#N` registered a melting point of 245 to 247 °C.

`N#Cc1c(CF)nn(-c2c(Cl)cc(C(F)(F)F)cc2Cl)c1N` [Compound 142, 5-Amino-4-cyano-1-(2,6-dichloro-4-trifluoromethylphenyl)-3-fluoromethylpyrazole] came in with a melting point of 139 to 141 °C.

In turn, `FC(F)c1cn(-c2c(Cl)cc(C(F)(F)F)cc2Cl)nc1C(F)(F)F` [Compound 235, 1-(2,6-Dichloro-4-trifluoromethylphenyl)-4-difluoromethyl-3-trifluoromethylpyrazole] had a melting point of 88 to 90 °C.

Compound `CCNc1c(C#N)c(C#N)nn1-c1c(Cl)cc(C(F)(F)F)cc1Cl` showed a melting point of 245 to 246 °C.

`CCCS(=O)(=O)c1c(C)nn(-c2c(Cl)cc(C(F)(F)F)cc2Cl)c1N` [Compound 223, 5-Amino-1-(2,6-dichloro-4-trifluoromethylphenyl)-3-methyl-4-propanesulphonylpyrazole] showed a melting point of 145.5 to 147 °C.

In turn, `Cc1nn(-c2c(Cl)cc(C(F)(F)F)cc2Cl)c(N)c1SC#N` [Compound 231, 5-Amino-1-(2,6-dichloro-4-trifluoromethylphenyl)-3-methyl-4-thiocyanatopyrazole] had a melting point of 133.5 °C.

For `CCOC(=O)c1c(C)nn(-c2c(Cl)cc(C(F)(F)F)cc2Cl)c1N` [Compound 162, 5-Amino-1-(2,6-dichloro-4-trifluoromethylphenyl)-3-methyl-4-ethoxycarbonylpyrazole], the melting point was in the range of 115 to 118 °C.

`Cc1nn(-c2c(Cl)cc(C(F)(F)F)cc2Cl)c(N)c1SC(Cl)(Cl)Cl` [Compound 233, 5-Amino-1-(2,6-dichloro-4-trifluoromethylphenyl)-3-methyl-4-trichloromethylthiopyrazole] yielded a melting point of 156 °C.

With `N#Cc1nn(-c2c(Cl)cc(C(F)(F)F)cc2Cl)c(Br)c1[N+](=O)[O-]`, the melting point was 147 to 150 °C.

Turning to `CNc1c(C#N)c(C#N)nn1-c1c(Cl)cc(C(F)(F)F)cc1Cl`, the melting point was 165 to 166 °C.

Compound `N#Cc1nn(-c2c(Cl)cc(C(F)(F)F)cc2Cl)c(N)c1SC(F)(F)C(F)Cl` (stereo not shown) came in with a melting point of 116 to 118 °C.

For the compound `CCC(=O)Nc1c(C#N)c(C#N)nn1-c1c(Cl)cc(C(F)(F)F)cc1Cl`, the melting point lay in the range of 188 to 189 °C.

Regarding `CC(=O)c1cn(-c2c(Cl)cc(C(F)(F)F)cc2Cl)nc1C(F)(F)F` [Compound 215, 4-Acetyl-1-(2,6-dichloro-4-trifluoromethylphenyl)-3-trifluoromethylpyrazole], the melting point was 134 °C.

`CC(=O)Nc1c(S(C)(=O)=O)c(C(F)(F)F)nn1-c1c(Cl)cc(C(F)(F)F)cc1Cl` [Compound 170, 5-Acetamido-1-(2,6-dichloro-4-trifluoromethylphenyl)-4-methanesulphonyl-3-trifluoromethylpyrazole] showed a melting point of 194 to 195 °C.

`CS(=O)(=O)c1cc(Cl)c(-n2nc(C(F)(F)F)c(C#N)c2N)c(Cl)c1` [Compound 232, 5-Amino-4-cyano-1-(2,6-dichloro-4-methanesulphonylphenyl)-3-trifluoromethylpyrazole] came in with a melting point of 270 to 272 °C.

In the case of `N#Cc1nn(-c2c(Cl)cc(C(F)(F)F)cc2Cl)c(Br)c1[S+]([O-])C(F)(F)F` (stereo not shown), the melting point lay in the range of 147 to 148 °C.

`CCCSc1c(C)nn(-c2c(Cl)cc(C(F)(F)F)cc2Cl)c1N` [Compound 227, 5-Amino-1-(2,6-dichloro-4-trifluoromethylphenyl)-4-n-propylthio-3-methylpyrazole] had a melting point of 100 to 102 °C.

`CCCOC=Nc1c(C#N)c(C)nn1-c1c(Cl)cc(C(F)(F)F)cc1Cl` [Compound 119, 4-Cyano-1-(2,6-dichloro-4-trifluoromethylphenyl)-3-methyl-5-propoxymethyleneaminopyrazole] yielded a melting point of 77 to 79 °C.

For `N#Cc1c(C(F)(F)F)nn(-c2c(Cl)cc(C(F)(F)F)cc2Cl)c1C(=O)O` [Compound 209, 5-Carboxy-4-cyano-1-(2,6-dichloro-4-trifluoromethylphenyl)-3-trifluoromethylpyrazole], the melting point was in the range of 177 to 179 °C.

Take `CCOC(=O)N(C)c1c(C#N)c(C(F)(F)F)nn1-c1c(Cl)cc(C(F)(F)F)cc1Cl` [Compound 175, 4-Cyano-1-(2,6-dichloro-4-trifluoromethylphenyl)-5-(N-methyl-N-ethoxycarbonylamino)-3-trifluoromethylpyrazole]: the melting point lay within 88 to 90 °C.

In the case of `CCOC=Nc1c(C#N)c(C(F)(F)F)nn1-c1c(Cl)cc(C(F)(F)F)cc1Cl` [Compound 135, 4-Cyano-1-(2,6-dichloro-4-trifluoromethylphenyl)-5-ethoxymethyleneamino-3-trifluoromethylpyrazole], the melting point was 160 to 162 °C.

For `N#Cc1nn(-c2c(Cl)cc([N+](=O)[O-])cc2Cl)c(N)c1C#N` [Compound 172, 5-Amino-1-(2,6-dichloro-4-nitrophenyl)-3,4-dicyanopyrazole], the melting point was in the range of 289 to 290 °C.

For the origin of these results see patent publication US6372774B1, “Derivatives of N-phenylpyrazoles” (Rhone-Poulenc Agriculture Ltd., priority 1985, dated 2002).
